We go through seven compounds from ChEMBL document CHEMBL3228002, “Sulfonated catecholamide analogues of enterobactin as iron sequestering agents” (J Med Chem, 1979).

SMILES strings stand for the structures.

The nature of the test: Iron sequestering activity of the compound assessed as [Fe(H2O)6]3+ formation at 10^-5 M at pH 7.4 by spectrophotometrically in presence of 10^-6 M total iron concentration.
With `O=C(NCc1cc(S(=O)(=O)O)cc(O)c1O)c1cc(C(=O)NCc2cc(S(=O)(=O)O)cc(O)c2O)cc(C(=O)NCc2cc(S(=O)(=O)O)cc(O)c2O)c1`, the pM is 25.1.

For the compound `O=C(NCCCCN(CCCNC(=O)c1cc(S(=O)(=O)O)cc(O)c1O)C(=O)c1cc(S(=O)(=O)O)cc(O)c1O)c1cc(S(=O)(=O)O)cc(O)c1O`, the pM came to 28.5.

In the case of `CC(=O)N(O)CCCCCNC(=O)CCC(=O)N(O)CCCCCNC(=O)CCC(=O)N(O)CCCCCN`, the pM amounted to 26.6.

For `O=C(NCc1cc(CNC(=O)c2cccc(O)c2O)cc(CNC(=O)c2cccc(O)c2O)c1)c1cccc(O)c1O`, the pM was found to be 29.1.

For the compound `O=C(N[C@H]1COC(=O)[C@@H](NC(=O)c2cccc(O)c2O)COC(=O)[C@@H](NC(=O)c2cccc(O)c2O)COC1=O)c1cccc(O)c1O`, the pM is 35.5.

Regarding `CN(C)C(=O)c1cc(S(=O)(=O)O)cc(O)c1O`, the pM turned out to be 19.2.

With `O=C(NCc1cc(CNC(=O)c2cc(S(=O)(=O)O)cc(O)c2O)cc(CNC(=O)c2cc(S(=O)(=O)O)cc(O)c2O)c1)c1cc(S(=O)(=O)O)cc(O)c1O`, the pM was 29.4.
